Test results taken from US8076325B2, “1,2,4,5-tetrahydro-3H-benzazepine compounds, a process for their preparation and pharmaceutical compositions containing them” (Les Laboratoires Servier, priority 2007, dated 2011).
Where a name gives a salt, the structure may show the parent alone.

system: spontaneously beating right atrium; test: Effect of compounds on the spontaneous beating rate of the right atrium in the rat; details: Rattus norvegicus, 0.25 h
Description: Male WISTAR rats weighing from 325 to 375 g are anaesthetised by ip injection of pentobarbital sodium (30 mg/kg). The heart is rapidly excised and placed in a physiological solution at 4° C. which contains (in mM): NaCl 120.3, KCl 4.8, CaCl2 2.5, KH2PO4 1.0, MgSO4 1.3, NaHCO3 24.2, glucose 11.1, Ca-EDTA 0.016, and which is oxygenated (carbogene 95% O2+5% CO2), pH 7.4. The right atrium (RA), which beats spontaneously, is isolated, placed in a basin, thermostatically controlled at 35° C., containing 20 ml of physiological solution and connected to an isometric tension sensor (model IT-25, EMKA Technologies, Paris, France). The initial tension is set at 0.4 g. The spontaneous beating rate is measured by IOX software (EMKA Technologies, Paris, France). Preparations whose spontaneous beating rate is not between 200 and 300 beats per minute are excluded.
The compounds are dissolved daily at 10^−2M. The following dilutions are stored in ice over the duration of the experiment.
After stabilisation for 30 minutes, the compound under test is added to the medium in cumulative manner every 15 minutes (4 concentrations). The reductions in beating rate are expressed as a percentage relative to the initial rate. The concentration that reduces the initial beating rate by 30% (IC30) is calculated and expressed in terms of molarity (μM).

| Molecule | IC30 [µM] |
| --- | --- |
| CNC(=O)Oc1ccc2c(c1)CC2CN(C)CCC(=O)N1CCc2cc(OC)c(OC)cc2CC1 (stereo not shown) [Example 44, 7-{[[3-(7,8-Dimethoxy-1,2,4,5-tetrahydro-3H-3-benzazepin-3-yl)-3-oxopropyl](methyl)amino]methyl}bicyclo[4.2.0]octa-1,3,5-trien-3-yl methylcarbamate hydrochloride] | 0.8 |
| CNC(=O)Oc1ccc2c(c1)C(CN(C)CCC(=O)N1CCc3cc(OC)c(OC)cc3CC1)C2 (stereo not shown) [Example 46, 8-{[[3-(7,8-Dimethoxy-1,2,4,5-tetrahydro-3H-3-benzazepin-3-yl)-3-oxopropyl](methyl)amino]methyl}bicyclo[4.2.0]octa-1,3,5-trien-3-yl methylcarbamate hydrochloride] | 0.5 |
| COc1cc2c(cc1OC)CCN(C(=O)CCN(C)CC1Cc3cc(OC(=O)N(C)C)ccc31)CC2 (stereo not shown) [Example 47, 7-{[[3-(7,8-Dimethoxy-1,2,4,5-tetrahydro-3H-3-benzazepin-3-yl)-3-oxopropyl](methyl)amino]methyl}bicyclo[4.2.0]octa-1,3,5-trien-3-yl dimethylcarbamate hydrochloride] | 0.6 |
| COc1cc2c(cc1OC)CCN(C(=O)CCN(C)CC1Cc3ccc(OC(=O)N(C)C)cc31)CC2 (stereo not shown) [Example 50, 8-{[[3-(7,8-Dimethoxy-1,2,4,5-tetrahydro-3H-3-benzazepin-3-yl)-3-oxopropyl](methyl)amino]methyl}bicyclo[4.2.0]octa-1,3,5-trien-3-yl dimethylcarbamate hydrochloride] | 0.5 |
| COc1cc2c(cc1OC)CCN(C(=O)CCNCC1Cc3ccc(OC(=O)N(C)C)cc31)CC2 (stereo not shown) [Example 53, 8-{[[3-(7,8-Dimethoxy-1,2,4,5-tetrahydro-3H-3-benzazepin-3-yl)-3-oxopropyl]amino]methyl}bicyclo[4.2.0]octa-1,3,5-trien-3-yl dimethylcarbamate hydrochloride] | 1.8 |
| COc1cc2c(cc1OC)CCN(C(=O)CCNCC1Cc3cc(OC(=O)N(C)C)ccc31)CC2 (stereo not shown) [Example 54, 7-{[[3-(7,8-Dimethoxy-1,2,4,5-tetrahydro-3H-3-benzazepin-3-yl)-3-oxopropyl]amino]methyl}bicyclo[4.2.0]octa-1,3,5-trien-3-yl dimethylcarbamate hydrochloride] | 0.8 |
| CCN(CC)C(=O)Oc1ccc2c(c1)CC2CN(C)CCC(=O)N1CCc2cc(OC)c(OC)cc2CC1 (stereo not shown) [Example 71, 7-{[[3-(7,8-Dimethoxy-1,2,4,5-tetrahydro-3H-3-benzazepin-3-yl)-3-oxopropyl](methyl)amino]methyl}bicyclo[4.2.0]octa-1,3,5-trien-3-yl diethylcarbamate hydrochloride] | 1.8 |
| COc1cc2c(cc1OC)CCN(C(=O)CCN(C)CC1Cc3cc(OC(=O)N4CCCC4)ccc31)CC2 (stereo not shown) [Example 73, 7-{[[3-(7,8-Dimethoxy-1,2,4,5-tetrahydro-3H-3-benzazepin-3-yl)-3-oxopropyl](methyl)amino]methyl}bicyclo[4.2.0]octa-1,3,5-trien-3-yl 1-pyrrolidinecarboxylate hydrochloride] | 2.4 |

same assay, conditions: Rattus norvegicus, 0.25 h; concentration that reduces the initial spontaneous beating rate by 30%; isolated right atrium of male WISTAR rats, 35° C., compound added cumulatively every 15 minutes (4 concentrations); read-out: IC30

| Molecule | IC30 [µM] |
| --- | --- |
| COc1cc2c(cc1OC)CCN(C(=O)CCN(C)C[C@H]1Cc3cc(OC)c(OC)cc31)CC2 [Example 3a, N-{[(7S)-3,4-Dimethoxybicyclo[4.2.0]octa-1,3,5-trien-7-yl]methyl}-3-(7,8-dimethoxy-1,2,4,5-tetrahydro-3H-3-benzazepin-3-yl)-N-methyl-3-oxopropan-1-amine hydrochloride] | 1.3 |
| COc1cc2c(cc1OC)CCN(C(=O)CCNC[C@H]1Cc3cc(OC)c(OC)cc31)CC2 [Example 4, N-{[(7S)-3,4-Dimethoxybicyclo[4.2.0]octa-1,3,5-trien-7-yl]methyl}-3-(7,8-dimethoxy-1,2,4,5-tetrahydro-3H-3-benzazepin-3-yl)-3-oxopropan-1-amine hydrochloride] | 1.4 |
| COc1cc2c(cc1OC)CCN(C(=O)CCN(C)CC1Cc3cc(OC)c(OC)cc3C1)CC2 [Example 7, N-[(5,6-Dimethoxy-2,3-dihydro-1H-inden-2-yl)methyl]-3-(7,8-dimethoxy-1,2,4,5-tetrahydro-3H-3-benzazepin-3-yl)-N-methyl-3-oxopropan-1-amine hydrochloride] | 1.7 |
| CCOc1ccc2c(c1)CC2CNCCC(=O)N1CCc2cc(OC)c(OC)cc2CC1 (stereo not shown) [Example 14, 3-(7,8-Dimethoxy-1,2,4,5-tetrahydro-3H-3-benzazepin-3-yl)-N-[(3-ethoxybicyclo[4.2.0]octa-1,3,5-trien-7-yl)methyl]-3-oxopropan-1-amine hydrochloride] | 1 |
| COc1cc2c(cc1OC)CCN(C(=O)CCN(CC1CC1)C[C@H]1Cc3cc(OC)c(OC)cc31)CC2 [Example 22, N-(Cyclopropylmethyl)-N-{[(7S)-3,4-dimethoxybicyclo[4.2.0]octa-1,3,5-trien-7-yl]methyl}-3-(7,8-dimethoxy-1,2,4,5-tetrahydro-3H-3-benzazepin-3-yl)-3-oxopropan-1-amine hydrochloride] | 0.8 |
| C=CCN(CCC(=O)N1CCc2cc(OC)c(OC)cc2CC1)C[C@H]1Cc2cc(OC)c(OC)cc21 [Example 23, N-Allyl-N-{[(7S)-3,4-dimethoxybicyclo[4.2.0]octa-1,3,5-trien-7-yl]methyl}-3-(7,8-dimethoxy-1,2,4,5-tetrahydro-3H-3-benzazepin-3-yl)-3-oxopropan-1-amine hydrochloride] | 1.4 |
| COc1cc2c(cc1OC)CCN(C(=O)CCN(C[C@H]1Cc3cc(OC)c(OC)cc31)C1CCCC1)CC2 [Example 27, N-Cyclopentyl-N-{[(7S)-3,4-dimethoxybicyclo[4.2.0]octa-1,3,5-trien-7-yl]methyl}-3-(7,8-dimethoxy-1,2,4,5-tetrahydro-3H-3-benzazepin-3-yl)-3-oxopropan-1-amine fumarate] | 1.2 |
| COc1cc2c(cc1OC)CCN(C(=O)CCN(CC1CCCC1)C[C@H]1Cc3cc(OC)c(OC)cc31)CC2 [Example 28, N-(Cyclopentylmethyl)-N-{[(7S)-3,4-dimethoxybicyclo[4.2.0]octa-1,3,5-trien-7-yl]methyl}-3-(7,8-dimethoxy-1,2,4,5-tetrahydro-3H-3-benzazepin-3-yl)-3-oxopropan-1-amine hydrochloride] | 1.2 |
| COc1cc2c(cc1OC)CCN(C(=O)CCN(CC1CCC1)C[C@H]1Cc3cc(OC)c(OC)cc31)CC2 [Example 29, N-(Cyclobutylmethyl)-N-{[(7S)-3,4-dimethoxybicyclo[4.2.0]octa-1,3,5-trien-7-yl]methyl}-3-(7,8-dimethoxy-1,2,4,5-tetrahydro-3H-3-benzazepin-3-yl)-3-oxopropan-1-amine fumarate] | 0.4 |
| COc1ccc2c(c1)CCN(C(=O)CCN(C)C[C@H]1Cc3cc(OC)c(OC)cc31)CC2 [Example 34, N-{[(7S)-3,4-Dimethoxybicyclo[4.2.0]octa-1,3,5-trien-7-yl]methyl}-3-(7-methoxy-1,2,4,5-tetrahydro-3H-3-benzazepin-3-yl)-N-methyl-3-oxopropan-1-amine hydrochloride] | 1.3 |
| COc1cc2c(cc1C)C(CN(C)CCC(=O)N1CCc3cc(OC)c(OC)cc3CC1)C2 (stereo not shown) [Example 74, 3-(7,8-Dimethoxy-1,2,4,5-tetrahydro-3H-3-benzazepin-3-yl)-N-{[3-methoxy-4-methyl-bicyclo[4.2.0]octa-1,3,5-trien-7-yl]methyl}-N-methyl-3-oxopropan-1-amine hydrochloride] | 1 |
| COc1cc2c(cc1C)CC2CN(C)CCC(=O)N1CCc2cc(OC)c(OC)cc2CC1 (stereo not shown) [Example 76, 3-(7,8-Dimethoxy-1,2,4,5-tetrahydro-3H-3-benzazepin-3-yl)-N-{[4-methoxy-3-methyl-bicyclo[4.2.0]octa-1,3,5-trien-7-yl]methyl}-N-methyl-3-oxopropan-1-amine hydrochloride] | 1.6 |

same assay, conditions: concentration that reduces the initial spontaneous beating rate by 30%; isolated right atrium of male WISTAR rats, 35° C., compound added cumulatively every 15 minutes (4 concentrations); read-out: IC30

| Molecule | IC30 [µM] |
| --- | --- |
| 7-({[3-(7,8-Dimethoxy-1,2,4,5-tetrahydro-3H-3-benzazepin-3-yl)-3-oxopropyl](methyl)amino}methyl)bicyclo[4.2.0]octa-1,3,5-trien-3-yl hexahydrocyclopenta[c]pyrrole-2(1H)-carboxylate (cis compound) [Example 78] | 2.0 |
| COc1cc2c(cc1OC)CCN(C(=O)CCN(C)CC1Cc3cc(OC(=O)N(C)C)ccc31)CC2.Cl (single isomer, unassigned; (-)) [Example 48, (−) enantiomer of 7-{[[3-(7,8-dimethoxy-1,2,4,5-tetrahydro-3H-3-benzazepin-3-yl)-3-oxopropyl](methyl)amino]methyl}bicyclo[4.2.0]octa-1,3,5-trien-3-yl dimethylcarbamate hydrochloride] | 0.5 |
